Tests used:
[1] = Plasma protein binding rate test, human plasma; type: in vitro ADME; conditions: 37° C.
Procedure: (§1) The embodiment compound was prepared into a 1 mM solution A with DMSO.
(§2) Solution A was added to the plasma solution and prepared into a 5 μM solution B.
(§3) • 1) 200 μL of solution B was added into the membrane. • 2) 350 μL of PBS was added to the outside of the membrane. • 3) Incubating in a 37° C. water bath for 6 hours. • 4) The samples were processed for dilution and detected by mass spectrometry.
(§4) • instrument: Shimadzu LC-20 AD; • chromatographic column: phenomenex Gemiu® C18 (50*4.6 mm, 5 UM particle size); • mobile phase: A: Acetonitrile, B: 0.1% formic acid solution 0-0.5 min: 5% A→90% A, 2.0-2.1 min: 90% A→5% A; flow rate: 0.8 mL/min; running time: 5.0 min; injection volume: 5 μL.
(§5) • instrument: API4000 Liquid Chromatography-Mass Spectrometry, AB, USA; • the ion source was electrospray ionization source (ESI); • the temperature of dry gas (N2) was 500° C.; • electrospray voltage was 5500V; • the detection method was positive ion detection; • the scanning mode was selective response monitoring (MRM); the scanning time was 0.1 s.

[2] = Pharmacokinetics in MiaPaca 2 tumor-bearing mice (plasma, tumor tissue); type: in vivo; conditions: female, mouse, po; Plasma, p.o. 6 mg/kg
Procedure: The pharmacokinetic behavior of the compound of the embodiment 13-1 and AMG-510 compound, administered orally at a dose of 6 mg/kg, in mice (plasma, tumor tissue and intestine) was studied using MiaPaca 2 tumor-bearing mice as test animals.
24 MiaPaca 2 tumor-bearing mice, females. 3 for each time point (0 h, 1 h, 2 h, 4 h, 6 h, 8 h, 16 h, 24 h). Shanghai xipuer-bikai Laboratory Animal Co., Ltd, Animal Production License No. (SCXK (Shanghai) 2018-0006.
Embodiment compound 13-1 and compound AMG-510 were weighed and dissolved in the solution, the mixture was shaken well, and ultrasound was performed for 15 minutes to obtain a uniform suspension with a concentration of 0.6 mg/mL.
MiaPaca 2 tumor-bearing mice were administered at a dose of 6 mg/kg in a volume of 10 mL/kg, respectively, based on body weight p.o. after fasting (animals were not administered at point 0 h).
Before and after administration, mice were sacrificed with CO2, 0.5 mL blood was collected from the heart and placed in EDTA-2K tube, centrifuged at 4° C. […] The duodenum, ileum and colon tissues were cut with scissors, the contents were removed and cleaned twice with PBS, after absorbing water with absorbent paper, they were weighed, placed in a 2 mL centrifuge tube and stored at −80° C.

[3] = tested on: phosphorylated ERK in Mia PaCa-2 cells; experiment: Inhibition of phosphorylated ERK in Mia PaCa-2 cells (LANCE Ultra); type: cell-based, human; conditions: 2 hours treatment; read-out: Mia PaCa-2 pERK IC50
Procedure: When Mia PaCa-2 cells were cultured to the appropriate fusion level, Mia PaCa-2 cells were collected, and the cell density was adjusted to 1×10^6/mL using complete culture medium, the cell suspension was spread on a 96-well plate, 50 μL per well, and placed adherent to the wall in a 37° C., 5% CO2 incubator overnight, compound solutions with different concentrations were prepared using DMSO and complete culture medium, a solvent control was set, the compound solution was added to a 96-well plate, 25 μL per well, and placed in a 37° C., 5% CO2 incubator for 2 hours of continuous culture, the supernatant was discarded from the cell culture plate, 50 μL of lysis solution was added to each well, and lysing was performed for 30 minutes by shaking at room temperature, then the mixture was centrifuged at 1000 rpm for 1 minute, 15 μL of supernatant was transferred to 384 well plate, 5 μL of detection mixture (Eu-labeled anti-ERK1/2 (T202-Y204) antibody with final concentration of 0.5 nM and ULight labeled anti-ERK1/2 antibody with final concentration of 5 nM) was added to each well, centrifuged at 1000 rpm for 1 minute and mixed uniformly, the reaction was carried out overnight at room temperature, the plate was read with BioTek Synergy H1, and the signal values was detected at 620 nm and 665 nm emission wavelengths by time-resolved fluorescence program. […]

[4] = tested on: human pancreatic cancer cell MiaPaca 2 xenograft (CDX); experiment: Tumor inhibition on MiaPaca 2 transplanted tumor model; type: in vivo, BALB/c nude mice; conditions: oral 6 mg/kg QD×3w
Procedure: MiaPaca 2 cells were removed from the cell bank, revived and added to DMEM medium (containing 10% FBS, 1% Glu, 1% P/S) and incubated in a CO2 incubator (incubator temperature was 37° C., CO2 concentration was 5%). After the cells were spread to 80-90% of the bottom of the culture flask, the cells were continued to be cultured in the CO2 incubator. The process was repeated until the number of cells met the in vivo pharmacological inoculation requirement, and the cells in logarithmic growth period were collected and counted with an automatic cell counter, resuspended with PBS and Matrigel (volume ratio 1:1) according to the count results, made into a cell suspension (the density was 8×10^7/mL), and placed in an ice box for use.
BALB/c nude mice, female, 6-8 weeks old, weighing about 18-22 g. The mice were kept in an environment free of special pathogens and in a single ventilated cage with 5 mice in each cage. […] Nude mice were labeled with disposable universal ear tags for mice and rats before the start of the experiment, and the skin of the inoculation site was disinfected with 75% medical alcohol before inoculation, 0.1 mL (containing 8*10^6 cells) of MiaPaca 2 tumor cells were inoculated subcutaneously on the right back of each mouse. When the tumor volume reached 100-200 mm^3, the group administration was started.
The tumor volume (mm^3) was measured with vernier caliper twice a week, the calculation formula was V=[…], wherein D and d were the long and short diameter of the tumor, respectively. The anti-tumor efficacy was determined by dividing the average tumor increased volume of the compound-treated animals by the average tumor increased volume of the untreated animals. The formula of tumor inhibition rate is: TGI (%)=1−[(Vt−V0) administration group/(Vt−V0) solvent control group]*100%. After the experiment, all animals were euthanized.

plasma protein [5] = experiment: Plasma protein binding rate test, human plasma; type: in vitro ADME; conditions: 5 μM, 37° C., 6 hours
Procedure: as §1, §2, §3, §4, §5

plasma protein [6] = experiment: Plasma protein binding rate test, rat plasma; type: in vitro ADME; conditions: 5 μM, 37° C., 6 hours
Procedure: as §1, §2, §3, §4, §5

| Molecule | fraction unbound at 6 h, 5 μM [1] | MRT [2] | half-life [2] | IC50 [3] | Tumor volume (mm^3, Mean ± SD) Day 0 ([4]; Day 0) | TGI (%) Day 21 ([4]; Day 21) | Tumor volume (mm^3, Mean ± SD) Day 21 ([4]; Day 21) | ΔT/ΔC (%) Day 21 ([4]; Day 21) | Plasma protein binding rate, Human (plasma protein [5]) | Plasma protein binding rate, Rat (plasma protein [6]) |
| --- | --- | --- | --- | --- | --- | --- | --- | --- | --- | --- |
| C=CC(=O)N1C[C@H](C)N(c2nc(=O)n(-c3c(SC)ccnc3C(C)C)c3nc(-c4c(N)ccc(Cl)c4F)c(Cl)cc23)C[C@H]1C (atropisomer, axis not shown) [Embodiment 13-1, P-4-((2S,5R)-4-Acryloyl-2,5-dimethylpiperazin-1-yl)-7-(6-amino-3-chloro-2-fluorophenyl)-6-chloro-1-(2-isopropyl-4-(methylthio)pyridin-3-yl)pyrido[2,3-d]pyrimidin-2(1H)-one] | 0.003 | 54 min | 30 min |  |  |  |  |  |  |  |
| P-4-((2S,5R)-4-acryloyl-2,5-dimethylpiperazin-1-yl)-6-fluoro-7-(2-fluoro-6-hydroxyphenyl)-1-(2-isopropyl-4-(methylthio)pyridin-3-yl)pyrido[2,3-d]pyrimidin-2(1H)-one [Embodiment 2-1] |  |  |  | 38 nM | 177 ± 38 mm^3 | 162.36% | 67 ± 34 mm^3 | −62.36% | 98.0 | 90.5 |
